In PubChem BioAssay (NCI):
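Values below derive from 48-hour exposures of cells grown in 96-well plates, with endpoints linearly interpolated between the two concentrations bracketing the appropriate inhibition level. GI50 = concentration required for 50% inhibition of growth. TGI denotes the concentration required for complete inhibition of growth.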

How the values were obtained:
Assay in all cases: NCI tumour cell line growth inhibition, 48 h
HCT-15 colon = tested on: HCT-15 colon
MOLT-4 leukemia = tested on: MOLT-4 leukemia
UACC-257 melanoma = tested on: UACC-257 melanoma
HS 578T breast = tested on: HS 578T breast
KM12 colon = tested on: KM12 colon
SK-MEL-28 melanoma = tested on: SK-MEL-28 melanoma
K-562 leukemia = tested on: K-562 leukemia
OVCAR-5 ovarian = tested on: OVCAR-5 ovarian
EKVX NSCLC = tested on: EKVX NSCLC
A498 renal = tested on: A498 renal

Structure (SMILES)	TGI (HCT-15 colon) [µM]	TGI (MOLT-4 leukemia) [µM]	TGI (UACC-257 melanoma) [µM]	TGI (HS 578T breast) [µM]	TGI (KM12 colon) [µM]	TGI (SK-MEL-28 melanoma) [µM]	TGI (K-562 leukemia) [µM]	TGI (OVCAR-5 ovarian) [µM]	TGI (EKVX NSCLC) [µM]	TGI (A498 renal) [µM]	GI50 (HCT-15 colon) [µM]	GI50 (MOLT-4 leukemia) [µM]	GI50 (UACC-257 melanoma) [µM]	GI50 (HS 578T breast) [µM]	GI50 (KM12 colon) [µM]	GI50 (SK-MEL-28 melanoma) [µM]	GI50 (K-562 leukemia) [µM]	GI50 (OVCAR-5 ovarian) [µM]	GI50 (EKVX NSCLC) [µM]	GI50 (A498 renal) [nM]
COc1ccc(C2CC(c3cc4c(C)c(C(=O)c5ccccc5)oc4cc3O)=Nc3ccccc3S2)cc1OC (configuration not stated)	> 100	> 100	> 100	> 100	> 34.8	> 100	> 100	> 100	> 100	> 87										
O=C1N[C@H]2c3c(Cl)sc(Cl)c3C(=O)[C@H]2O1	5.51	5.11	36.2	43.5	> 100	24.7	> 30.7	51.1	27.9	43.2										
COC(=O)Cc1c([C@@H]2Nc3ccccc3[C@H]2CC(=O)OC)[nH]c2ccccc12	> 100	68.9	81.6	> 100		> 100	77.7	> 100	> 100	> 100										
C[N+]1(C)CC=C(N2CCOCC2)CC1	> 10	> 10	> 10	> 10	> 10	> 10	> 10		> 10	> 10										
Cc1cc(Br)c(N2C3=C(CC4=C2CCCC4=O)C(=O)CCC3)c(Br)c1	> 100	> 100		> 100	> 100	> 100	> 100	> 100	> 100	> 100										
[N-]=N[N+]#I1OC(C(F)(F)F)(C(F)(F)F)c2ccccc21	21.2	59.2	75.9	37.3	29	28.9	> 100	28.5	34	31.8										
NC1=CN(CCCO)C2=N/C(=C\c3ccco3)C(=O)N12	> 100	> 100	> 100	> 100	> 100	> 100	> 100	> 100	> 100	> 100										
CN(C)CC1CCC/C(=C\c2ccc(N(C)C)cc2)C1=O (configuration not stated)	16.1	> 100	26.3	26	2.93	19.1	> 100	26.9	30.4	30.9										
Cc1ncc([N+](=O)[O-])n1CCN(C)CCCCn1ccnc1[N+](=O)[O-]	> 100	> 100	> 100	> 100	> 100	> 100	> 100	> 100	> 100	> 100										
O=[N+]([O-])/C(C(Cl)=C(Cl)Cl)=C1\Nc2ccccc2O1	> 100	77.9	> 100	> 100	> 100	> 100	> 100	> 100	> 100	> 100										
CCOC(=O)C1(Cc2ccc(C)cc2)Cc2ccc(C)cc2C1=O (configuration not stated)	> 100	27.7	98.2	> 100	> 72.3	> 100	> 41.4	> 100	> 100	> 79.1										
O=C(NCc1cn(Cc2cccc(Oc3ccccc3)c2)nn1)c1cccnc1Nc1ccccc1	> 100	> 100	86.4	> 100	46.4	> 100	> 100	> 100	> 100	8.19	3.81	3.74	14.2	3.68	3.63	4.93	3.69	5.73	5.18	1880
N#CC(c1ccc(O)cc1)N1CCN(C(C#N)c2ccc(O)cc2)CC1 (configuration not stated)	> 100	> 100	> 100	> 100	> 100	> 100	> 100	> 100	> 76.1	> 100										
COc1ccc(CN2C(=O)CCC/C=C\[C@H]2CI)cc1	24.9	25.6	21.7	33.2	23	25.2	> 100	24.5	22.5	25										
CC1(C)CCc2c(cc3c(c2O)CCC(C)(C)O3)O1	> 100	> 100	> 100	> 100	> 100	> 100	> 100	> 100	> 100	> 100										
NCCC1(N)CCNCC1	> 100	> 100	> 100	> 100	> 100	> 100	> 100	> 100	> 100	> 100										
CCCCCCCCCCCCNC(=O)NCC(OCC)OCC	> 10	> 10	> 10	> 10	> 10	> 10	> 10	> 10	> 10	> 10										
